Results on 29 compounds are retold here after patent US12398120B2, “Substituted hydantoinamides as ADAMTS7 antagonists” (BAYER AKTIENGESELLSCHAFT, priority 2019, dated 2025).

Structures are written as SMILES. pIC50: −log10 of the molar value.

Chain of ADAMTS4 (O75173 213-685): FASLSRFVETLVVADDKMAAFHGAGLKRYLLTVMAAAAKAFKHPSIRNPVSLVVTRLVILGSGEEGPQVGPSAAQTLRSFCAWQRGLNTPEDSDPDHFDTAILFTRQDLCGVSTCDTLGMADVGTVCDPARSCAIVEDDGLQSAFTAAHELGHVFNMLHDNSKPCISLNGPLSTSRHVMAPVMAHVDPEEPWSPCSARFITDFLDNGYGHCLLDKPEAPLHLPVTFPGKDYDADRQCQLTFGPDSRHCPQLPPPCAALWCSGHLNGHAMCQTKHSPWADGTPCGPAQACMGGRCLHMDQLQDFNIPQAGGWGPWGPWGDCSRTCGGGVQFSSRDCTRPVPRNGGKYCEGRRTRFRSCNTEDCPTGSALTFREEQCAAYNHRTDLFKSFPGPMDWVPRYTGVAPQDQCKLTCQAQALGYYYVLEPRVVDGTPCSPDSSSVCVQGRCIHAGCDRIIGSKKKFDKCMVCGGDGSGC

In this experiment the target is ADAMTS4 (Homo sapiens (Human), UniProt O75173). Briefly: Selectivity assay for ADAMTS-7 modulators: ADAMTS4 (FRET substrate). The following applies: ADAMTS4 (R&D 4307-AD) 50 nM, substrate Dabcyl-EEVKAKVQPY-Glu(Edans)-NH2 1 μM, 120 min, 32° C. Format: biochemical. How it is done:
1 μl test compound solution (dissolved in DMSO, at the corresponding concentration) or pure DMSO as a control was added per well. The enzymatic reaction was initiated by addition of 25 μl of the respective concentration of the respective FRET substrate (see table 2 below) in reaction buffer.
The increase of fluorescence intensity was measured in appropriate fluorescence plate reader (e.g. TECAN Ultra) using the respective wavelengths for excitation and emission. IC50 values were calculated from percentage of inhibition of enzyme activity as a function of test compound concentration.
Compound `COc1cc(Cl)ccc1-c1ccccc1C(=O)NCC1(c2ccnn2C)NC(=O)NC1=O` (single isomer, unassigned; ent-4) [Example 314, Ent-4′-Chloro-2′-Methoxy-N-{[4-(1-Methyl-1H-Pyrazol-5-Yl)-2,5-Dioxoimidazolidin-4-Yl]Methyl}[Biphenyl]-2-Carboxamide] showed a pIC50 of less than 4.30. Consider `O=C1NC(=O)C(CNC(=O)c2ccc(F)cc2-c2ccc(C(F)(F)F)cc2)(c2ncsc2C2CC2)N1` (stereo not drawn) [Example 273, Ent-N-{[4-(5-Cyclopropyl-1,3-Thiazol-4-Yl)-2,5-Dioxoimidazolidin-4-Yl]Methyl}-5-Fluoro-4′-(Trifluoromethyl)[Biphenyl]-2-Carboxamide], for which the pIC50 was 4.57. `Cc1cnoc1C1(CNC(=O)c2ccccc2-c2ccc(C(F)(F)F)nc2)NC(=O)NC1=O` (racemic) [Example 77, Rac-N-{[4-(4-Methyl-1,2-Oxazol-5-Yl)-2,5-Dioxoimidazolidin-4-Yl]Methyl}-2-[6-(Trifluoromethyl)Pyridin-3-Yl]Benzamide]: the pIC50 was 4.40. Then `CC(C)(c1ccc(-c2ccccc2C(=O)NC[C@@]2(C3CC3)NC(=O)NC2=O)cc1)C(F)(F)F` [Example 120, N-{[(4R)-4-Cyclopropyl-2,5-Dioxoimidazolidin-4-Yl]Methyl}-4′-(1,1,1-Trifluoro-2-Methylpropan-2-Yl)[Biphenyl]-2-Carboxamide], with 4.46; and `Cc1nc(C2(CNC(=O)c3ccc(F)cc3-c3ccc(C(F)(F)F)cc3)NC(=O)NC2=O)c(C)s1` (racemic) [Example 269, Rac-N-{[4-(2,5-Dimethyl-1,3-Thiazol-4-Yl)-2,5-Dioxoimidazolidin-4-Yl]Methyl}-5-Fluoro-4′-(Trifluoromethyl)[Biphenyl]-2-Carboxamide], with 5.02; and `Cc1nocc1C1(CNC(=O)c2ccccc2-c2ccc(C(F)(F)F)nc2)NC(=O)NC1=O` (racemic) [Example 41, Rac-N-{[4-(3-Methyl-1,2-Oxazol-4-Yl)-2,5-Dioxoimidazolidin-4-Yl]Methyl}-2-[6-(Trifluoromethyl)Pyridin-3-Yl]Benzamide], with 4.52. For `Cc1ccc(-c2ccccc2C(=O)NCC2(C3CCC3)NC(=O)NC2=O)cc1` (stereo not drawn) [Example 236, Ent-N-[(4-Cyclobutyl-2,5-Dioxoimidazolidin-4-Yl)Methyl]-4′-Methyl[Biphenyl]-2-Carboxamide], the pIC50 was 4.82.

With `COc1ccc(C(=O)NC[C@@]2(C3CC3)NC(=O)NC2=O)c(-c2ccc(C3CC3)cc2)c1` [Example 103, 4′-Cyclopropyl-N-{[(4R)-4-Cyclopropyl-2,5-Dioxoimidazolidin-4-Yl]Methyl}-5-Methoxy[Biphenyl]-2-Carboxamide], the pIC50 is 5.15. For `Cc1cccc(C(=O)NC[C@@]2(C3CC3)NC(=O)NC2=O)c1-c1ccc(C(F)(F)F)cc1` [Example 109, N-{[(4R)-4-Cyclopropyl-2,5-Dioxoimidazolidin-4-Yl]Methyl}-6-Methyl-4′-(Trifluoromethyl)[Biphenyl]-2-Carboxamide] the value was 5.06; for `Cc1cnoc1C1(CNC(=O)c2ccccc2-c2ccc(C(F)(F)F)cc2)NC(=O)NC1=O` (stereo not drawn) [Example 88, Ent-N-{[4-(4-Methyl-1,2-Oxazol-5-Yl)-2,5-Dioxoimidazolidin-4-Yl]Methyl}-4′-(Trifluoromethyl)[Biphenyl]-2-Carboxamide], 5.04.

In the case of `O=C1NC(=O)[C@](CNC(=O)c2cc(F)ccc2-c2ccc(Cl)cc2)(C2CC2)N1` [Example 233, 4′-Chloro-N-{[(4R)-4-Cyclopropyl-2,5-Dioxoimidazolidin-4-Yl]Methyl}-4-Fluoro[1,1′-Biphenyl]-2-Carboxamide], the pIC50 is 5.19. Turning to `Cc1cn(C)nc1C1(CNC(=O)c2ccccc2-c2ccc(C(F)(F)F)nc2)NC(=O)NC1=O` (stereo not drawn) [Example 72, Ent-N-{[4-(1,4-Dimethyl-1H-Pyrazol-3-Yl)-2,5-Dioxoimidazolidin-4-Yl]Methyl}-2-[6-(Trifluoromethyl)Pyridin-3-Yl]Benzamide], the pIC50 is 5.16. For `O=C1NC(=O)C(CNC(=O)c2ccccc2-c2ccc(C(F)(F)F)nc2)(c2cscn2)N1` (stereo not drawn) [Example 277, Ent-N-{[2,5-Dioxo-4-(1,3-Thiazol-4-Yl)Imidazolidin-4-Yl]Methyl}-2-[6-(Trifluoromethyl)Pyridin-3-Yl]Benzamide], the pIC50 is 4.80. For the compound `CCC(F)(F)c1ccc(-c2ccccc2C(=O)NC[C@@]2(C3CC3)NC(=O)NC2=O)cc1` [Example 102, N-{[(4R)-4-Cyclopropyl-2,5-Dioxoimidazolidin-4-Yl]Methyl}-4′-(1,1-Difluoropropyl)[Biphenyl]-2-Carboxamide], the pIC50 was 5.18.

In turn, `O=C1NC(=O)C(CNC(=O)c2ccccc2-c2ccc(C(F)(F)F)cc2)(c2ccnn2CC(F)(F)F)N1` (racemic) [Example 6, Rac-N-({2,5-Dioxo-4-[1-(2,2,2-Trifluoroethyl)-1H-Pyrazol-5-Yl]Imidazolidin-4-Yl}Methyl)-4′-(Trifluoromethyl)[Biphenyl]-2-Carboxamide] gave a pIC50 of 5.21. Then `O=C1NC(=O)[C@](CNC(=O)c2ccccc2-c2ccc(C(F)(F)F)cc2)(C2CC2)N1` [Example 114, N-{[(4R)-4-Cyclopropyl-2,5-Dioxoimidazolidin-4-Yl]Methyl}-4′-(Trifluoromethyl)[Biphenyl]-2-Carboxamide], with 4.99; and `CC(C)C1(CNC(=O)c2cccc(F)c2-c2ccc(C(F)(F)F)cc2)NC(=O)NC1=O` (single isomer, unassigned; ent-6) [Example 210, Ent-6-Fluoro-N-[(4-Isopropyl-2,5-Dioxoimidazolidin-4-Yl)Methyl]-4′-(Trifluoromethyl)[Biphenyl]-2-Carboxamide], with 4.64. With `Cn1cncc1C1(CNC(=O)c2ccccc2-c2ccc(C(F)(F)F)cc2)NC(=O)NC1=O` (racemic) [Example 283, Rac-N-{[4-(1-Methyl-1H-Imidazol-5-Yl)-2,5-Dioxoimidazolidin-4-Yl]Methyl}-4′-(Trifluoromethyl)[Biphenyl]-2-Carboxamide], the pIC50 is 5.20. For `Cn1ccnc1C1(CNC(=O)c2ccccc2-c2ccc(C(F)(F)F)nc2)NC(=O)NC1=O` (stereo not drawn) [Example 158, Ent-N-{[4-(1-Methyl-1H-Imidazol-2-Yl)-2,5-Dioxoimidazolidin-4-Yl]Methyl}-2-[6-(Trifluoromethyl)Pyridin-3-Yl]Benzamide] the value was 5.52. Then `CC(C)(C)c1ccc(-c2cc(F)ccc2C(=O)NC[C@@]2(C3CC3)NC(=O)NC2=O)cc1` [Example 124, 4′-Tert-Butyl-N-{[(4R)-4-Cyclopropyl-2,5-Dioxoimidazolidin-4-Yl]Methyl}-5-Fluoro[Biphenyl]-2-Carboxamide], with 4.38.

The compound `Cc1ccc(C(=O)NC[C@@]2(C3CC3)NC(=O)NC2=O)c(-c2ccc(C3CC3(F)F)cc2)c1` (stereo partly drawn) [Example 136, N-{[(4R)-4-Cyclopropyl-2,5-Dioxoimidazolidin-4-Yl]Methyl}-4′-(2,2-Difluorocyclopropyl)-5-Methyl[1,1′-Biphenyl]-2-Carboxamide] gave a pIC50 of 5.15. Then `Cn1nccc1C1(CNC(=O)c2ccccc2-c2ccc(C(F)(F)F)nc2)NC(=O)NC1=O` (stereo not drawn) [Example 190, Ent-N-{[4-(1-Methyl-1H-Pyrazol-5-Yl)-2,5-Dioxoimidazolidin-4-Yl]Methyl}-2-[6-(Trifluoromethyl)Pyridin-3-Yl]Benzamide], with 4.92; and `Cn1ccnc1C1(CNC(=O)c2ccc(Cl)cc2-c2ccc(C(F)(F)F)cc2)NC(=O)NC1=O` (single isomer, unassigned; ent-5) [Example 161, Ent-5-Chloro-N-{[4-(1-Methyl-1H-Imidazol-2-Yl)-2,5-Dioxoimidazolidin-4-Yl]Methyl}-4′-(Trifluoromethyl)[Biphenyl]-2-Carboxamide], with 6.14; and `O=C1NC(=O)C(CNC(=O)c2ccccc2-c2ccc(C(F)(F)F)nc2)(c2ncsc2C2CC2)N1` (stereo not drawn) [Example 274, Ent-N-{[4-(5-Cyclopropyl-1,3-Thiazol-4-Yl)-2,5-Dioxoimidazolidin-4-Yl]Methyl}-2-[6-(Trifluoromethyl)Pyridin-3-Yl]Benzamide], with 5.42. Then `O=C1NC(=O)C(CNC(=O)c2ccccc2-c2ccc(C(F)(F)F)cc2)(C2CCCC2)N1` (racemic) [Example 48, Rac-N-[(4-Cyclopentyl-2,5-Dioxoimidazolidin-4-Yl)Methyl]-4′-(Trifluoromethyl)[Biphenyl]-2-Carboxamide], with less than 4.30. For `O=C1NC(=O)[C@](CNC(=O)c2cc(F)ccc2-c2ccc(C(F)(F)F)cc2)(C2CC2)N1` [Example 121, N-{[(4R)-4-Cyclopropyl-2,5-Dioxoimidazolidin-4-Yl]Methyl}-4-Fluoro-4′-(Trifluoromethyl)[Biphenyl]-2-Carboxamide] the value was 5.23; for `O=C1NC(=O)[C@](CNC(=O)c2cccc(F)c2-c2ccc(C(F)(F)F)cc2)(C2CC2)N1` [Example 235, N-{[(4R)-4-Cyclopropyl-2,5-Dioxoimidazolidin-4-Yl]Methyl}-6-Fluoro-4′-(Trifluoromethyl)[1,1′-Biphenyl]-2-Carboxamide], 5.11; for `O=C1NC(=O)[C@](CNC(=O)c2ccc(Cl)cc2-c2ccc(C(F)(F)F)nc2)(C2CC2)N1` [Example 75, 4-Chloro-N-{[(4R)-4-Cyclopropyl-2,5-Dioxoimidazolidin-4-Yl]Methyl}-2-[6-(Trifluoromethyl)Pyridin-3-Yl]Benzamide], 5.00. Compound `Cc1cnoc1C1(CNC(=O)c2ccccc2-c2ccc(C(F)(F)F)cc2)NC(=O)NC1=O` (racemic) [Example 59, Rac-N-{[4-(4-Methyl-1,2-Oxazol-5-Yl)-2,5-Dioxoimidazolidin-4-Yl]Methyl}-4′-(Trifluoromethyl)[Biphenyl]-2-Carboxamide] gave a pIC50 of 4.64.

In general, pIC50 refers to the negative decadic logarithm of the IC50, by convention in mol/L. A low value points to a high IC50.
